In assay [1] the test system is AF-1 recombinant protein (human AR-NTD). Nature of the assay: AF-1 STD NMR binding assay. The note with it: 25 μM AF-1, 250 μM compound. How it is done:
Binding of the exemplary compounds to human AR-NTD was performed using STD […] Nuclear Magnetic Resonance (STD NMR) analysis with purified AF-1 recombinant protein.
Binding of the exemplary compounds to human AR-NTD was performed using STD […] Nuclear Magnetic Resonance (STD NMR) analysis with purified Tau-5AF-1 recombinant protein. All NMR spectroscopy experiments were performed on a Bruker Avance III 600 MHz spectrometer. NMR samples contain 25 μM AF-1 and 250 μM compound, and were diluted by PBS (pH 7.4, 60% D20) buffer to 500 μL. For the STD experiments, the standard Bruker stddiffgp19.3 pulse sequence was used with a saturation time of 2 s and a spectral width of 16 ppm with 128 scans. The on-resonance frequency was set to −0.4 ppm, while the off-resonance frequency was set to 33 ppm. Appropriate blank experiments, in the absence of protein or compound, were performed to test the lack of direct saturation to the compound protons.

In a further assay the target is T1, AR (Homo sapiens, UniProt P10275).
T1 sequence (P10275 1-920 T878A): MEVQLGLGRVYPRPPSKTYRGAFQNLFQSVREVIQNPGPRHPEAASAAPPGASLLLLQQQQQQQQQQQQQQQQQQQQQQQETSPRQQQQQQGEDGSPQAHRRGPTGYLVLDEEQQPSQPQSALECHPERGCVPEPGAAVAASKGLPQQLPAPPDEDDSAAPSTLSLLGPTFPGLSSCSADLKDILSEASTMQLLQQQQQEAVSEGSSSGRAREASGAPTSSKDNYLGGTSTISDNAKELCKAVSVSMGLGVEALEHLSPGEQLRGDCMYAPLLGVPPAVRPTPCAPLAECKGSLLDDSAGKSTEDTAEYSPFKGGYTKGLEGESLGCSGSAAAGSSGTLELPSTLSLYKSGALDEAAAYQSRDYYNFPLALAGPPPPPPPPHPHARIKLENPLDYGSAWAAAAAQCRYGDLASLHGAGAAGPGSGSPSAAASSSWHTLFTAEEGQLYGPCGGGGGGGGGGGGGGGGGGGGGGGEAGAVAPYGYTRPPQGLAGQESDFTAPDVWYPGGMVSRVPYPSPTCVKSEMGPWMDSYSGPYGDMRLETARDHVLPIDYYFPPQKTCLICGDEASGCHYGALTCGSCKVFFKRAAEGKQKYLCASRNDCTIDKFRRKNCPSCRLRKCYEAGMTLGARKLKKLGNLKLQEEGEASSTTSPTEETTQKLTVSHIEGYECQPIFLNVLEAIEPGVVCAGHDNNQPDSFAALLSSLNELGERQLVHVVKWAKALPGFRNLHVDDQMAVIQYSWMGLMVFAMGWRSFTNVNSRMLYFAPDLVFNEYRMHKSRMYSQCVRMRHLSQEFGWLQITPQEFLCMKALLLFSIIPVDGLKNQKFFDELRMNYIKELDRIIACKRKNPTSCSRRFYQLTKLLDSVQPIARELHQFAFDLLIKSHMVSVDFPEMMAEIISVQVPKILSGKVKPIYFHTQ
Nature of the assay: ARE-luciferase reporter assay in LNCaP cells (DHT-induced). It counts as cell-based. The note with it: 1 nM DHT, 24 h, normalized to cell viability, read-out: LNCaP ARE-luc IC50. How it is done:
(§1) The ARE-luciferase reporter plasmid contains functional AREs (androgen response elements) to which AR binds in response to androgen to induce luciferase activity. LNCaP (Cobioer) cells were transiently transfected with the ARE-luciferase reporter in charcoal stripped FBS/phenol red-free RPMI medium prior to treatment for 24 hours. Then DMSO or test compounds with serial diluted concentrations were added one hour prior to the addition of DHT(1 nM). After 24 h of incubation with DHT, cells were lysed and luciferase activity was assayed using the ONE-Glo™ Luciferase Assay System (Promega) and measured using EnVision Multimode Plate Reader, according to manufacturer's instructions. Values were normalized to cell viability determined by CellTiter-Glo® Luminescent Cell Viability Assay Kit (Promega). […] GraphPad Prism graphing software was used to calculate IC50 values.
In general terms: Reporter assays use an easily measured gene product as a stand-in for the process of interest.

A further assay deals with LNCaP cells. Briefly: Cell proliferation assay (CellTiter-Glo), LNCaP. It counts as cell-based. The settings on record: Homo sapiens, 96 h, 0.2 nM DHT, 4 days, read-out: LNCaP IC50 AR-positive (cell proliferation). How it is done: (§2) To evaluate the effect of exemplary compounds on proliferation of AR/AR-V7-dependent prostate cancer cells, cell viability assay was performed in LNCaP (AR-positive), 22Rv1 (AR-positive; AR-V7 positive), VCaP (AR-positive; AR-V7 positive), and DU145 (AR-negative) cells, respectively.
(§3) LNCaP cells were seeded in charcoal stripped FBS/phenol red-free RPMI medium in 96-well plates for 24 h before pretreating for 1 h with test compounds prior to addition of 0.2 nM DHT for 4 days. 22Rv1 or VCaP cells were cultured in charcoal stripped FBS/phenol red-free RPMI medium for 24 h before addition of test compounds for 4 days. DU145 cells were seeded in complete medium for 24 h before addition of test compounds for 4 days. Cell proliferation was measured with CellTiter-Glo® Luminescent Cell Viability Assay (Promega). In LNCaP cells, DHT-dependent cell growth is calculated by measuring the difference between vehicle control (DMSO) cells treated with or without 0.2 nM DHT. The IC50 values were determined using the four parameter fit via GraphPad Prism graphing software.
On the technique in general: In ATP-based viability assays light output follows the ATP content of the culture.

A further assay deals with 22Rv1 cells. Briefly: Cell proliferation assay (CellTiter-Glo), 22Rv1. The note with it: Homo sapiens, 22Rv1, 96 h; 4 days; read-out: 22Rv1 IC50 AR-positive; AR-V7 positive (cell proliferation). It counts as cell-based. How it is done:
as §2, §3

A further assay concerns VCaP cells. Briefly: Cell proliferation assay (CellTiter-Glo), VCaP. The assay is classed as cell-based. The settings on record: Homo sapiens, 96 h, 4 days, read-out: VCaP IC50 AR-positive, AR-V7 positive (cell proliferation). The protocol: as §2, §3
The next assay has as its system DU145 cells. Nature of the assay: Cell proliferation assay (CellTiter-Glo), DU145. It counts as cell-based. The note with it: Homo sapiens, DU-145, 96 h; 4 days; read-out: DU145 IC50 AR-negative (cell proliferation). The protocol: as §2, §3
The subject of assay [2] is AR or AR-V7 downstream target genes. Nature of the assay: AR/AR-V7 target gene qPCR assay in 22Rv1 cells. It counts as cell-based, human. The note with it: 22Rv1, 48 h, RT-qPCR. The protocol:
To evaluate the effect of exemplary compounds on mRNA expression of AR or AR-V7 downstream target genes, real-time quantitative PCR measurements were performed in prostate cancer cell line 22Rv1 expressing both AR and AR-V7.
22Rv1 cells were cultured in charcoal stripped FBS/phenol red-free RPMI medium for 24 h, and then treated with DMSO or test compounds for additional 48 h prior to RT-qPCR. Briefly, RNA was isolated from cells using RNeasy Mini Kit (Qiagen) following the manufacturer's protocol. RNA was reverse transcribed and subjected to qPCR using PowerUp™ SYBR™ Green Master Mix (Applied Biosystems). The relative quantity of the target genes was calculated using the ΔΔCt method by comparing Ct of the target genes and mean Ct of the housekeeping gene GAPDH.
A general note: Quantitative PCR measures a nucleic acid by following its amplification.

Assay [3] deals with T2, AR V7 (Homo sapiens, UniProt P10275).
T2 sequence (P10275 1-644 isoform P10275-3): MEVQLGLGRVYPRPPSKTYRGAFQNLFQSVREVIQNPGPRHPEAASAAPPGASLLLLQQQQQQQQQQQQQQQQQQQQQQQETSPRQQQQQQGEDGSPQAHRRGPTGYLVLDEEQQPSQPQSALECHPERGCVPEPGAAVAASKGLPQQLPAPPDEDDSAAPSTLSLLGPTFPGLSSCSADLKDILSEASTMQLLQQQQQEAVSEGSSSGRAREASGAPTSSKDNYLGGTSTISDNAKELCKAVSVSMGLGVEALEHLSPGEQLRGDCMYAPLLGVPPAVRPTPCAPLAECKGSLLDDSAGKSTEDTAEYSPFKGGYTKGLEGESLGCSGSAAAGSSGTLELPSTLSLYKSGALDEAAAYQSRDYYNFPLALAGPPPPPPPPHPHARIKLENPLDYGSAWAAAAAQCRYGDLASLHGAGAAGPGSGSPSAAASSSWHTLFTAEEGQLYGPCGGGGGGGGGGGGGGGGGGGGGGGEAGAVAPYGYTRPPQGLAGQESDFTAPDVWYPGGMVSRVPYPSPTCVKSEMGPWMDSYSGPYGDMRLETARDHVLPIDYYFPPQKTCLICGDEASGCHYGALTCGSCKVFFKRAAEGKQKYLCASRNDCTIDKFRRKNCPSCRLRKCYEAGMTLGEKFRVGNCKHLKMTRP
Briefly: ARE-luciferase reporter assay in HEK293T cells cotransfected with AR-V7. The assay is classed as cell-based. On the set-up: host or cells: HEK293T. The settings on record: HEK293T cotransfected with AR-V7, hormone-starved, 24 h; read-out: HEK293T(V7) ARE-luc IC50. How it is done: as §1
(§4) To evaluate the transcriptional activity of AR-V7, HEK293T(Cobioer) cells were transiently cotransfected with an expression vector for AR-V7 and the ARE-luciferase reporter in hormone-starved conditions. For 22Rv1(Cobioer) prostate cancer cell line, which expresses endogenous AR-V7, ARE-luciferase reporter was transiently transfected in hormone-starved conditions. 24 h after transfection, DMSO or test compounds with serial diluted concentrations were added for additional 24 h incubation. Reporter activity was detected and normalized by cell viability as described above. Treatments were normalized to DMSO control activity, and IC50 values were further determined via GraphPad Prism graphing software.

Assay [4] deals with T2, AR V7. Briefly: ARE-luciferase reporter assay in 22Rv1 cells (endogenous AR-V7). The settings on record: 22Rv1, hormone-starved, 24 h; read-out: 22Rv1 ARE-luc IC50. On the set-up: 22Rv1(Cobioer) prostate cancer cell line, which expresses endogenous AR-V7; host or cells: 22Rv1. The assay is classed as cell-based. The protocol:
as §1, §4

“Also recorded” adds a separate entry of the source.

For `CC(C)(c1ccc(OCc2ccnc(N=S3(=O)CCNCC3)n2)cc1)c1cc(Cl)c(OCCO)c(C#N)c1` [Compound 62, 3-chloro-2-(2-hydroxyethoxy)-5-(2-(4-((2-((1-oxido-1λ^6-thiomorpholin-1-ylidene)amino)pyrimidin-4-yl)methoxy)phenyl)propan-2-yl)benzonitrile], in [1], the “binding to AF-1 (STD difference spectrum)” value was “confirmed the binding; also recorded: binds to AF-1”.
Take `CC(C)(c1ccc(OCc2ccnc(N=S3(=O)CCCC3)n2)cc1)c1cc(Cl)c(OCCCl)c(C#N)c1` [Compound 2, 3-chloro-2-(2-chloroethoxy)-5-(2-(4-((2-((1-oxidotetrahydro-1λ^6-thiophen-1-ylidene)amino)pyrimidin-4-yl)methoxy)phenyl)propan-2-yl) benzonitrile]: the IC50 on AR was 2820 nM; with LNCaP cells it was 520 nM; with 22Rv1 cells it was 2750 nM; in the assay with VCaP cells, 8.81 µM; with DU145 cells it was more than 20 µM; at AR V7 [3] it was 2300 nM. In addition, the IC50 on AR V7 [4] came to 4.4 µM. Moreover, the “mRNA expression of target genes of either AR or AR-V7” value in [2] is “inhibited mRNA expression”.

Values taken from US20240150301A1, “METHODS OF MODULATING ANDROGEN RECEPTOR CONDENSATES” (ETERN BIOPHARMA (SHANGHAI) CO., LTD., priority 2021, published 2024).
